For data set [1], the system named is D6 (CQ^S) P. falciparum strain. Put plainly: In vitro fluorescence (Sybr Green I) growth inhibition assay, D6 strain. It counts as cell-based. The following applies: Plasmodium falciparum, D6; Table 13; growth inhibition; read-out: IC50 (nM) D6 (CQ^S). An excerpt: One exemplary method for measuring inhibitory effects of RCQ compound in vitro has been reported by Smilkstein et al. (Antimicrob. Agents Chemother., 48(5):1803-1806, 2004). This method employs fluorescent detection of the level of parasitemia in cultured red blood cells and can be automated for high-throughput screening of antimalarial RCQs. This exemplary method allows the inhibitory agent (such as a RCQ) to be in contact with the parasite for an entire developmental cycle without purine starvation, which is in contrast to the traditional ^3H-hypoxanthine method (Desjardins et al., Antimicrob. Agents Chemother., 16(6):710-718, 1979). Briefly, to perform the Smilkstein et al. method, an initial parasitemia of approximately 0.2% is attained by adding uninfected red blood cells (RBCs) to a stock culture of Plasmodium sp.-infected RBCs. […] After a period of incubation (such as about 72 hours), a sufficient amount (e.g., 100 μL) of a fluorescent DNA binding dye-detergent mixture (e.g., Sybr Green I dye-detergent mixture) to lyse cells and bind to DNA is added to the reactions. Because uninfected RBCs have no DNA, only parasite DNA (in infected RBCs) is available for binding to the fluorescent dye (e.g., Sybr Green I). Samples are then incubated in the dark for a period of time (e.g., one hour), followed by measurement of levels of fluorescence. For Sybr Green I, excitation and emission wavelength are 485 and 530 nm, respectively. Fluorescence readings, which represent the amount of parasite DNA in the sample, can be plotted against the Log [drug] and fit to a curve by nonlinear regression to obtain the IC50 value for the tested compound.
An in vitro fluorescence assay for determining IC50 of antimalarial drugs was performed as previously described by Smilkstein et al. (Antimicrob. Agents Chemother., 48(5):1803-1806, 2004). This relatively low-cost procedure can be automated for high-throughput screening of the antimalarial activities of RCQs described herein. Advantageous, this method also allows the tested agent (e.g, a RCQ) to be in contact with the parasite for an entire developmental cycle without purine starvation (which occurs with the commonly used ^3H-hypoxanthine method; see, e.g., Desjardins et al., Antimicrob. Agents Chemother., 16, (6):[…], 1979).
Briefly, an initial parasitemia of approximately 0.2% was attained by addition of uninfected red blood cells to a stock culture of cells infected with Dd2 (CQ^R) or D6 (CQ^S) P. falciparum strains. A 10 mM RCQ_02 solution (in DMSO) was prepared. RCQ_02 (at a final concentration from 10^−11 to 10^−4 M) and infected red blood cells (at a final concentration of 2% (v/v)) were mixed in 100 μL samples in individual wells of a 96-well plate. Each sample was prepared in triplicate. A triplicate set of reactions containing CQ (instead of RCQ_02) was included as a control. After a 72 hour incubation period, Sybr Green I dye-detergent mixture (100 μL) was added to each reaction. The samples were further incubated for an hour in the dark, and then placed in a 96-well fluorescence plate reader (Gemini-EM, […]) and analyzed with excitation and emission wavelength bands at 485 and 530 nm, respectively. Fluorescence readings were plotted against the Log [drug], and curve fitting performed by nonlinear regression to find the IC50 value.

Data set [2] deals with T1, recombinant human dopamine (HEK-hDAT) transporter (Homo sapiens, UniProt Q01959).
T1 construct: expressed in transfected cells; host or cells: HEK cells expressing hDAT (HEK-hDAT)
Description: Inhibition of [3H]neurotransmitter uptake, hDAT. It counts as cell-based. The procedure:
Selected RCQs were tested for inhibition of [^3H]neurotransmitter uptake by the recombinant human serotonin (hSERT), dopamine (HEK-hDAT), and norepinephrine (hNET) transporters by a modification of the method of Eshleman et al. (J. Pharmacol. Exp. Ther., 289(2):877-885, 1999). HEK-hDAT, hSERT, and -hNET expressing cells were grown on tissue culture dishes. After removing the medium and washing the plates with Ca^2+-, Mg^2+-free phosphate buffered saline (PBS), fresh medium was added and the plates were placed in a 25° C. water bath for 5 minutes. Cells were gently lifted from the plates and cell clusters separated by trituration. 50 μL aliquots of the suspended cells were added to assay tubes containing drugs and Krebs-HEPES assay buffer in a final volume of 0.5 mL.
Competition experiments were conducted in triplicate. After a 10 minute preincubation period at 25° C., [^3H]neurotransmitter (20 nM final concentration; [^3H]DA, [^3H]5-HT, or [^3H]NE) were added, and the mixtures incubated for 10 minutes. Reactions were terminated by filtration through Wallac filtermat A filters (presoaked in 0.05% polyethylenimine), using a Tomtec cell harvester. Scintillation fluid was added to each filtered spot, and radioactivity remaining on the filters determined using a Wallac 1205 Betaplate scintillation counter.
Specific uptake was defined as the difference in uptake observed in the absence and presence of 5 μM mazindol (hDAT and hNET) or 5 μM imipramine (hSERT). Inhibition of uptake was determined by non-linear regression using Prism software.

Data set [3] in a line: Adverse side effects in treated mice of the 4-day suppressive test. It counts as in vivo. The following applies: 64, 32, 16 mg/kg oral gavage once per day for four days; CF-1 mice. An excerpt: A variation of the 4-day suppressive test described by Peters (Ann. Trop. Med. Parasitol., 69(2):155-171, 1975) was used to test the in vivo effectiveness of RCQ_02 as a treatment for Plasmodium sp. infection. Briefly, P. chabaudi parasites (Mackinnon and Read, Philos. Trans. R. Soc. Lond. B Biol. Sci., 359:965-986, 2004) were collected from a donor animal harboring approximately 20% parasitemia. Sixteen (16) male CF-1 mice at 4-5 weeks of age (approximately 20 g) were infected with approximately 10^7 infected red blood cells via 100 μL tail vein injection. The infected mice were randomly sorted into groups of 4 mice each on day 0. One hour after infection, each group of four mice received 64, 32, 16, or 0 mg/kg RCQ_02 via oral gavage once per day for four days. After the treatment course, the animals were weighed and blood collected for the determination of parasite burden via direct microscopic analysis of Giemsa-stained blood smears. Mice treated with 64 mg/kg RCQ_02 were all cleared of parasites to >99% by day 4.

SMILES strings stand for the structures.

One may read the IC50 as the concentration that inhibits the measured activity by half.

T1 sequence (Q01959 whole entry): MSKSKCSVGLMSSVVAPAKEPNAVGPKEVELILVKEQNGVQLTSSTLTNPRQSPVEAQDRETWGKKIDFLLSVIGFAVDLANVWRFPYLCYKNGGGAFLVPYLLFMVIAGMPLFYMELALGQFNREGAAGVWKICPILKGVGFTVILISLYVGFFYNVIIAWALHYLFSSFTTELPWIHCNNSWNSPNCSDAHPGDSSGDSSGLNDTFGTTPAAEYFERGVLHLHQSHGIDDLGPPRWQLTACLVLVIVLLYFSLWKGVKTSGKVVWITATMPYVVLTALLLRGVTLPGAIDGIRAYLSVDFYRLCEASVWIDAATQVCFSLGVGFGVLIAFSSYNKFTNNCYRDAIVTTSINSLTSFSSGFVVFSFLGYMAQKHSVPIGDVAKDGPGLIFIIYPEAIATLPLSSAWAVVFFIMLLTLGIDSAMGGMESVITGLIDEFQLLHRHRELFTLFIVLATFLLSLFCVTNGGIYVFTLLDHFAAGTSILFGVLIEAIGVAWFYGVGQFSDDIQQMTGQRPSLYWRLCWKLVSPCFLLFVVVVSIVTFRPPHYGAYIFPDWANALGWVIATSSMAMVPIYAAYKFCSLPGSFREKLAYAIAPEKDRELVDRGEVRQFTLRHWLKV

With `CN(CCCNc1ccnc2cc(Cl)ccc12)CCCN1c2ccccc2CCc2ccccc21` [RCQ_02, N′-(7-Chloro-quinolin-4-yl)-N-[3-(10,11-dihydro-dibenzo[b,f]azepin-5-yl)-propyl]-N-methyl-propane-1,3-diamine], the values for the IC50 in data set [1] and in data set [2] were 2.9 nM and 2200 nM, respectively. Moreover, the “adverse side effects (weight loss, reduced eating, reduced activity, ruffled ungroomed fur)” value in data set [3] is given as “none of the treated mice showed any adverse side effects”.

The record behind these values is patent US9493420B2, “Quinoline derivatives and uses thereof” (Portland State University, priority 2005, dated 2016).
